Read-outs that look alike come from different tables or passages of the source. Positions of bridges follow the written chain, without caps; N, C: chain ends. Residues, ends and D or L forms follow the SMILES beside them.
What was measured:
[1] = tested on: gonad-intact cynomolgus monkeys; experiment: 52-week (12 months) daily subcutaneous study in gonad-intact young cynomolgus monkeys: bone mass, histomorphometry, % cortical porosity; type: in vivo; details: for % Cortical Porosity: Tibial Mid-Diaphysis, 12 months
Description: The peptide [Leu^27]cyclo[Glu^22-Lys^26]-hPTH-(1-31)-NH2 Ostabolin-C™ was administered daily by subcutaneous injection to gonad-intact cynomolgus monkeys (4/sex/group) at dose levels of 0, 2, 10 and 25 μg/kg for 52 weeks. Monkeys were 30 to 40 months of age (2.3-3.5 kg) at treatment start. Tibiae were retained for histomorphometry following labeling with calcein green 15 and 5 days prior to euthanasia. Bone mass, as measured by DXA (dual-energy x-ray absorptiometry) and QCT (quantitative computed tomography), was increased at the lumbar spine, femur and tibia. Changes in vertebral BMD (bone mineral density) translated into significant increases in bone strength. […] Tibial cancellous bone volume increased by more than 50% in all the peptide [Leu^27]cyclo[Glu^22-Lys^26]-hPTH-(1-31)-NH2 treated groups compared to controls and in the tibial mid-diaphysis, increases in cortical width and relative cortical area with concurrent decreases in medullary area were observed. […] Increases in indices of bone formation were associated with decreases in indices of bone resorption (decreased bone resorption markers, decreased osteoclast surface area, minimal cortical porosity), consistent with the uncoupling of these events. This combination of anabolic and anti-catabolic actions may have significant therapeutic value in the treatment of osteoporosis.
Comparative data regarding increase in cortical bone porosity in monkey subjects using Ostabolin C at a variety of doses and using the prior art PTHs 1-34 is shown below.

[2] = Plasma pharmacokinetics of Ostabolin-C formulations in female rats, single 200 μg/kg SC, IM, IV; type: in vivo; details: rat; for Vd: iv
Description: Formulations were prepared once only as follows: The bulk freeze-dried peptide was dissolved in 0.01 M acetic acid (supplied by Fisher Scientific, Loughborough, UK) in a 1:1 ratio, re-aliquotted into dosing vials and deep frozen (approximately −70° C.). The vials were freeze-dried at <−20° C. and stored frozen until required. The freeze-dried aliquots for injection were re-constituted with water for injection (supplied by Animalcare Ltd, York, UK). The peptide was dissolved in an appropriate volume of purified water to an approximate concentration of 2 to 3 mg/mL. Phosphate buffered saline (pH 7.4) was added to give the final required concentration (at approximately pH 7.2). The capped vial(s) were mixed thoroughly to ensure the peptide was fully dissolved. Aseptic techniques and glass vials were used throughout dose preparation. The dose was not sterile filtered. […] The calculated amounts of mannitol, sodium acetate trihydrate and glacial acetic acid were weighed and then dissolved in the correct amount of water for injection. The test article was weighed, added to the solution and stirred to dissolve. The pH was adjusted to 4.5 with 0.1N NaOH or HCl (supplied by Covance, Harrogate) depending on initial pH. Water was added to obtain the required volume.
The calculated amount of lipoic acid was weighed and transferred to a suitable container and then dispersed with water for injection. The pH was adjusted to 7.7 with 1N NaOH (supplied by BDH Laboratory Supplies, a division of Merck Ltd, Poole, UK). The test article was weighed, added and stirred to dissolve. The pH was adjusted to 7.5 with 1N NaOH. Propylene glycol was added to obtain the correct volume.
The calculated amount of DL-Methionine was weighed and transferred to a suitable container and dispersed in water for injection. The test article was weighed and added to the solution. The pH was adjusted to 7.5 with 0.1N NaOH. Ethanol was added to make the required volume.

[3] = Ostabolin-C Inhalation Powder (OCIP) Phase I pharmacokinetics; type: in vivo; details: female, human, blood
Description: A Phase I clinical study was undertaken using Ostabolin-C™ Inhalation Powder (OCIP) to establish an MTD in post-menopausal women, to compare its PK profile with Phase II sub-cutaneous doses, and to evaluate biological activity with cAMP and biomarkers of bone turnover. The OCIP was administered using the Nektar T-326 dry powder inhaler (DPI), which is well-accepted by osteoporosis patients in focus groups. An ascending dose tolerance was used. Each cohort was randomized and included 6 active patients and 2 placebo patients. The patients were post menopausal healthy females that were older than 40 years of age and had no known history of osteoporosis or other bone disease.
The primary measurements were taken at clinical laboratories where patient surveys were taken and the patient could describe any adverse events. Additionally the patients' vital signs were taken with Holter monitoring of EKGs and Spirometry. Pharmacokinetics, such as Ostabolin-C blood levels, PK parameters after a single dose and after 7 days of daily dosing were also measured. Pharmacodynamics were also monitored for changes in bone markers including P1NP, Osteocalcin, NTx, CTx, and urine cyclic AMP.

[4] = tested on: post-menopausal women with low bone mineral density; experiment: Phase II clinical study of subcutaneous Ostabolin-C in post-menopausal women with low BMD (BMD, bone markers, serum calcium, side effects); details: for Sitting HR / Headache / HyperCa > 2.65 / HyperCa > 2.75 / N + H / Nausea: 4 months; for Headache / HyperCa > 2.65 / HyperCa > 2.75 / N + H / Nausea: unit assumed
Description: A four month Phase II clinical study was undertaken to investigate the safety, tolerability and efficacy of Ostabolin-C™ in post-menopausal women with low bone mineral density (BMD). […] The clinical protocol is a 16-week phase II randomized, double-blind, placebo-controlled, parallel group, dose finding study to investigate the safety, tolerability and efficacy of Ostabolin-C™ in post-menopausal women with low bone mineral density (BMD). In this study, 261 patients underwent four months of daily dosing of placebo and four active groups. The active groups included daily administration of Ostabolin-C™ in doses of 7.5, 15, 30, and 45 μg. Ostabolin-C™ is formulated as a clear, colorless liquid provided in pre-filled syringes and injected subcutaneously (SC). Subjects self-administer SC 0.1 mL injections of their assigned dose of Ostabolin-C™ 7.5, 15, 30, and 45 μg or placebo daily for 16 weeks in rotating quadrants of the abdomen. The subjects were post-menopausal women (for at least 5 years) with moderate osteoporosis.
The key endpoints for the study include change in mean BMD at the lumbar spine, as assessed by dual energy x-ray absorptiometry (DEXA), and measured by change from the Baseline visit. The Baseline visit is the first visit of the patient, before undergoing any treatment. Secondary efficacy endpoints include the following, as measured by change from Baseline visit:
DEXA: Bone formation and resorption markers: • Mean femoral neck BMD • Serum osteocalcin • Mean trochanter BMD • Serum amino terminal pro-peptide of type 1 pro-collagen (P1NP) • Mean total hip BMD • Mean radial BMD (distal and midshaft) • Bone specific alkaline phosphatase (BSAP) • Bone mineral content (BMC) • Serum C-telopeptide (CTx) • Bone area • Serum N-telopeptide (NTx)

Structure (SMILES): CC[C@H](C)[C@H](NC(=O)[C@H](CCC(=O)O)NC(=O)[C@H](CO)NC(=O)[C@@H](NC(=O)[C@@H](N)CO)C(C)C)C(=O)N[C@@H](CCC(N)=O)C(=O)N[C@@H](CC(C)C)C(=O)N[C@@H](CCSC)C(=O)N[C@@H](Cc1c[nH]cn1)C(=O)N[C@@H](CC(N)=O)C(=O)N[C@@H](CC(C)C)C(=O)NCC(=O)N[C@@H](CCCCN)C(=O)N[C@@H](Cc1c[nH]cn1)C(=O)N[C@@H](CC(C)C)C(=O)N[C@@H](CC(N)=O)C(=O)N[C@@H](CO)C(=O)N[C@@H](CCSC)C(=O)N[C@@H](CCC(=O)O)C(=O)N[C@@H](CCCN=C(N)N)C(=O)N[C@H](C(=O)N[C@H]1CCC(=O)NCCCC[C@@H](C(=O)N[C@@H](CC(C)C)C(=O)N[C@@H](CC(C)C)C(=O)N[C@@H](CCC(N)=O)C(=O)N[C@@H](CC(=O)O)C(=O)N[C@H](C(N)=O)C(C)C)NC(=O)[C@H](CCCN=C(N)N)NC(=O)[C@H](CC(C)C)NC(=O)[C@H](Cc2c[nH]c3ccccc23)NC1=O)C(C)C [Ostabolin-C, [Leu^27]cyclo[Glu^22-Lys^26]-PTH-(1-31)-NH2] (H-SVSEIQLMHNLGKHLNSMERVEWLRKLLQDV-NH2; lactam 22-26)
- % Cortical Porosity ([1]; F, 2 μg/kg/day): 2.5 ± 0.41%
- % Cortical Porosity ([1]; F, 10 μg/kg/day): 2.6 ± 0.85%
- % Cortical Porosity ([1]; F, 25 μg/kg/day): 3.2 ± 0.87%
- % Cortical Porosity ([1]; M, 2 μg/kg/day): 4.2 ± 0.29%
- % Cortical Porosity ([1]; M, 10 μg/kg/day): 5.1 ± 1.08%
- % Cortical Porosity ([1]; M, 25 μg/kg/day): 8.0 ± 5.54%
- cortical porosity ([1]; two highest dose levels, 52 weeks): Only minor increases
- bioavailability ([2]; female, 200 ug/kg, IM, read-out: Absolute bioavailability): 8.7%
- level at 2 min ([2]; female, 200 ug/kg, IV, not quantified, read-out: plasma concentrations at 2 minutes post the end of the infusion): > 610 ng/mL
- bioavailability ([2]; female, 200 ug/kg, SC, read-out: Absolute bioavailability (Fabs)): < 2%
- Vd ([2]; female, 200 ug/kg, IV, female rats, read-out: Vss): 0.479 L/kg
- Vd ([2]; female, 200 ug/kg, IV, female rats, read-out: Vz): 0.471 L/kg
- half-life ([2]; female, other: SC, 200 ug/kg, SC, IM and IV dose routes, read-out: terminal elimination half life, where calculable): 7.2 to 42.4 min
- clearance ([2]; 200 ug/kg, IV, female rats): 45.4 mL/min/kg
- Tmax ([2]; IV, female rats, post end of infusion): 5 min
- Cmax ([3]; subcutaneous, Day 1, normalized to SC 45 μg): 0.0747 ng/mL
- AUC(0-t) ([3]; subcutaneous, Day 1, normalized to SC 45 μg, read-out: AUC(0-4)): 0.0412 ng·h/mL
- Tmax ([3]; Day 1, SC, averaged for all subjects): 13.2 min
- half-life ([3]; Day 1, SC, averaged for all subjects, read-out: T½ (converted)): 37.2 min
- Mean [Ca] ([4]; 30 μg (4 months)): 0.040 mmol/L
- hypercalcemia seen at least once, % of group ([4]; 30 μg doses (placebo 5%)): 5%
- Sitting HR ([4]; 30 ug): 2.4
- Headache ([4]; 30 ug): 19.6%
- HyperCa > 2.65 ([4]; 30 ug): 4.5%
- HyperCa > 2.75 ([4]; 30 ug): 2.3%
- N + H ([4]; 30 ug): 7.8%
- Nausea ([4]; 30 ug): 25.5%
- Mean [Ca] ([4]; 45 μg (4 months)): 0.070 mmol/L
- Sitting HR ([4]; 45 ug): 4.0
- Headache ([4]; 45 ug): 21.8%
- HyperCa > 2.65 ([4]; 45 ug): 27.3%
- HyperCa > 2.75 ([4]; 45 ug): 9.1%
- N + H ([4]; 45 ug): 12.7%
- Nausea ([4]; 45 ug): 29.1%
- percent of abnormal serum calcium ([4]; doses up to and including 30 μg (FIG. 14)): no notable difference from placebo

Reference: US20080176787A1, “Parathyroid hormone analogues and methods of use” (priority 2005, published 2008)
